Data published in ChEMBL document CHEMBL4507267 (2021).

Columns and labels:
[1] = molecular target: Histamine H4 receptor (Homo sapiens) (UniProt Q9H3N8); settings: Compound concentration 10.0 uM
[2] = tested on: Epidermal growth factor receptor (Homo sapiens), P00533 [L858R]; settings: Compound concentration 1000.0 nM
[3] = molecular target: Peripheral plasma membrane protein CASK (Homo sapiens) (UniProt O14936); settings: Compound concentration 1000.0 nM
[4] = molecular target: 5-hydroxytryptamine receptor 2B (Homo sapiens) (UniProt P41595); settings: Compound concentration 10.0 uM
[5] = molecular target: Serine/threonine-protein kinase B-raf (Homo sapiens) (UniProt P15056); settings: Compound concentration 1000.0 nM
[6] = molecular target: Leukocyte tyrosine kinase receptor (Homo sapiens) (UniProt P29376); settings: Compound concentration 1000.0 nM
[7] = molecular target: Tyrosine-protein kinase CSK (Homo sapiens) (UniProt P41240); settings: Compound concentration 1000.0 nM
Chain of Tyrosine-protein kinase CSK (Homo sapiens) (P41240 2-450 limits assumed): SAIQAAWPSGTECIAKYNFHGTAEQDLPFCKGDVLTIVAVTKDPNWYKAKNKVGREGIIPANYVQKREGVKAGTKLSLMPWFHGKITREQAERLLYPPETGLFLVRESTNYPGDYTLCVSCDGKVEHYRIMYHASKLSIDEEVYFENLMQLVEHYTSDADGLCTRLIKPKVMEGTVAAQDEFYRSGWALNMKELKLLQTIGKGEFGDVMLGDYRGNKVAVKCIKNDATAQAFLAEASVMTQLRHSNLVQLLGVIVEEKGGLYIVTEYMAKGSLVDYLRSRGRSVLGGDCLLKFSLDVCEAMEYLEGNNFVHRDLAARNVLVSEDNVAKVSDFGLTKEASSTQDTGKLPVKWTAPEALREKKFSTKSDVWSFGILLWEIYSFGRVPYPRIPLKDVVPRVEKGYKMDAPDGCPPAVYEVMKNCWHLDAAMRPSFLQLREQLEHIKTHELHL

[8] = tested on: Mast/stem cell growth factor receptor Kit (Homo sapiens), P10721 [A829P]; settings: Compound concentration 1000.0 nM
[9] = molecular target: Mitogen-activated protein kinase kinase kinase 1 (Homo sapiens) (UniProt Q13233); settings: Compound concentration 1000.0 nM
[10] = molecular target: Tyrosine-protein kinase JAK2 (Homo sapiens) (UniProt O60674); settings: Compound concentration 1000.0 nM
[11] = molecular target: Cyclin-dependent kinase 13 (Homo sapiens) (UniProt Q14004); settings: Compound concentration 1000.0 nM
[12] = molecular target: Tyrosine-protein kinase receptor Tie-1 (Homo sapiens) (UniProt P35590); settings: Compound concentration 1000.0 nM
[13] = molecular target: Fibroblast growth factor receptor 1 (Homo sapiens) (UniProt P11362); settings: Compound concentration 1000.0 nM
[14] = molecular target: Serine/threonine-protein kinase Nek6 (Homo sapiens) (UniProt Q9HC98); settings: Compound concentration 1000.0 nM
[15] = molecular target: Cyclin-dependent kinase 19 (Homo sapiens) (UniProt Q9BWU1); settings: Compound concentration 1000.0 nM
[16] = molecular target: Mitogen-activated protein kinase kinase kinase 20 (Homo sapiens) (UniProt Q9NYL2); settings: Compound concentration 1000.0 nM
[17] = molecular target: LIM domain kinase 2 (Homo sapiens) (UniProt P53671); settings: Compound concentration 1000.0 nM
[18] = molecular target: Insulin-like growth factor 1 receptor (Homo sapiens) (UniProt P08069); settings: Compound concentration 1000.0 nM
[19] = molecular target: Tyrosine-protein kinase HCK (Homo sapiens) (UniProt P08631); settings: Compound concentration 1000.0 nM
[20] = molecular target: Serine/threonine-protein kinase 10 (Homo sapiens) (UniProt O94804); settings: Compound concentration 1000.0 nM
[21] = molecular target: MAP/microtubule affinity-regulating kinase 4 (Homo sapiens) (UniProt Q96L34); settings: Compound concentration 1000.0 nM
[22] = molecular target: NUAK family SNF1-like kinase 2 (Homo sapiens) (UniProt Q9H093); settings: Compound concentration 1000.0 nM
[23] = molecular target: Serine/threonine-protein kinase TAO2 (Homo sapiens) (UniProt Q9UL54); settings: Compound concentration 1000.0 nM
[24] = molecular target: Alpha-2A adrenergic receptor (Homo sapiens) (UniProt P08913); settings: Compound concentration 10.0 uM
[25] = molecular target: Proto-oncogene tyrosine-protein kinase receptor Ret (Homo sapiens) (UniProt P07949); settings: Compound concentration 1000.0 nM
Chain of Proto-oncogene tyrosine-protein kinase receptor Ret (Homo sapiens) (P07949 whole entry): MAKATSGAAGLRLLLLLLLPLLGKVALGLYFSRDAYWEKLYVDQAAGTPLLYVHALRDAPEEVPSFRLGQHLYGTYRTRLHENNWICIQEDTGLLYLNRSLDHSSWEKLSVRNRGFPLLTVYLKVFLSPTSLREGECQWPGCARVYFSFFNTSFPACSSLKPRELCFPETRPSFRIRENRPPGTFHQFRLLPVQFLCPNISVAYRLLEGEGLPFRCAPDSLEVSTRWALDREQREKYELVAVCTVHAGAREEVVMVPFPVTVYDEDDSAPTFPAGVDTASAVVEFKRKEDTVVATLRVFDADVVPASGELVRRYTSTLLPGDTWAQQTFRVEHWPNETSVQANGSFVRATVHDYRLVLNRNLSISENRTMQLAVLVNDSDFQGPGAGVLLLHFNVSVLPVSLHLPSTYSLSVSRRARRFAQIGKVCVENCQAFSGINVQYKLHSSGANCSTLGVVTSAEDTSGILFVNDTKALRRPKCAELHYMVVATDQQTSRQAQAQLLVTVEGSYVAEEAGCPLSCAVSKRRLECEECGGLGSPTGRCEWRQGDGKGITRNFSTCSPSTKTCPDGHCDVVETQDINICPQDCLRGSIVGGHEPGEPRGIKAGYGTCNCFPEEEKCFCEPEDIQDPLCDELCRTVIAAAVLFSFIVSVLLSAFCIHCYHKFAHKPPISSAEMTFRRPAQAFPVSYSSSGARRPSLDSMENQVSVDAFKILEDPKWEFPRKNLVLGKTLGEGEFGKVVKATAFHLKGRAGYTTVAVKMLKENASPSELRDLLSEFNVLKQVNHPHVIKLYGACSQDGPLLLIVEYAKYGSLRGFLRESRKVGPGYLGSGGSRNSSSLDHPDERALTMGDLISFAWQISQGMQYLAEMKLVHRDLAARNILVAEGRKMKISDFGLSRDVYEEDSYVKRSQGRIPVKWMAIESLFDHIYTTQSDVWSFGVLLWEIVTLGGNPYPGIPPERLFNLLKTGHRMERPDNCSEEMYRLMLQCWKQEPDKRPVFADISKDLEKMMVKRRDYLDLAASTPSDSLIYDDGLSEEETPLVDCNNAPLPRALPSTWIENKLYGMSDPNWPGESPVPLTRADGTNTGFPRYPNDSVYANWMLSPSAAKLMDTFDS

[26] = molecular target: Phosphatidylinositol 5-phosphate 4-kinase type-2 gamma (Homo sapiens) (UniProt Q8TBX8); settings: Compound concentration 1000.0 nM
[27] = molecular target: Homeodomain-interacting protein kinase 1 (Homo sapiens) (UniProt Q86Z02); settings: Compound concentration 1000.0 nM
[28] = molecular target: Tyrosine-protein kinase Lck (Homo sapiens) (UniProt P06239); settings: Compound concentration 1000.0 nM
[29] = molecular target: Mitogen-activated protein kinase 8 (Homo sapiens) (UniProt P45983); settings: Compound concentration 1000.0 nM
[30] = molecular target: BMP-2-inducible protein kinase (Homo sapiens) (UniProt Q9NSY1); settings: Compound concentration 1000.0 nM
Chain of BMP-2-inducible protein kinase (Homo sapiens) (Q9NSY1 whole entry, looked up): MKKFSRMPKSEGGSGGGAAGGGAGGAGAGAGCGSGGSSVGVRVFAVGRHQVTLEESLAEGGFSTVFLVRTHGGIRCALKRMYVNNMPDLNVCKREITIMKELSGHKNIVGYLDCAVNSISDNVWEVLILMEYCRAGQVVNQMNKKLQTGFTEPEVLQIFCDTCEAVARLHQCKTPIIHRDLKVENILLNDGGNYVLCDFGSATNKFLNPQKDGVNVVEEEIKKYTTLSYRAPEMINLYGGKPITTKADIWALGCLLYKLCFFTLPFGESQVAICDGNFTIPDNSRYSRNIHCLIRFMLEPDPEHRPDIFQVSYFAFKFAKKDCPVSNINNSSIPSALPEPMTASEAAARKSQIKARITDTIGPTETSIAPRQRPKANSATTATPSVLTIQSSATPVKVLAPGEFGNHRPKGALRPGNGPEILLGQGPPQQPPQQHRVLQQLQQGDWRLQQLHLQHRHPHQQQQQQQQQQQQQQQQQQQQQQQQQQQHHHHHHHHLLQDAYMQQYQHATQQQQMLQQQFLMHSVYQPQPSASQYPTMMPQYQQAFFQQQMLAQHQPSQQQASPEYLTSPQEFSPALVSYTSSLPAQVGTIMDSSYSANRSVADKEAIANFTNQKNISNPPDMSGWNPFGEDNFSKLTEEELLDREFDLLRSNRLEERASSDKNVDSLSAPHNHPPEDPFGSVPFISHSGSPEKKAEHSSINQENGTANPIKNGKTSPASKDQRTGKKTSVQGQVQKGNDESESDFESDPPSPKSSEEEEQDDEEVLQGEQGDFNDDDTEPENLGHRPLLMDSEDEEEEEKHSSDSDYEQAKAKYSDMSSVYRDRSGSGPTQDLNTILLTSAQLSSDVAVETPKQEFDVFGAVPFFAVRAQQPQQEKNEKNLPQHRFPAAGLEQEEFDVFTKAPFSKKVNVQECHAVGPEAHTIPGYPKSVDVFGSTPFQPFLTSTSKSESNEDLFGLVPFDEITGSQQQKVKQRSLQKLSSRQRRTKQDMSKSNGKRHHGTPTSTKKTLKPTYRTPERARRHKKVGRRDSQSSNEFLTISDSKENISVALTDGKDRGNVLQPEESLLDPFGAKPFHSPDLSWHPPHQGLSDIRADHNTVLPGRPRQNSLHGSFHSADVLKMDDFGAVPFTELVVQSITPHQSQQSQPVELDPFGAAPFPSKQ

[31] = molecular target: Bone morphogenetic protein receptor type-1A (Homo sapiens) (UniProt P36894); settings: Compound concentration 1000.0 nM
[32] = molecular target: cGMP-dependent protein kinase 2 (Homo sapiens) (UniProt Q13237); settings: Compound concentration 1000.0 nM
[33] = molecular target: Tyrosine-protein kinase ABL1 (Homo sapiens) (UniProt P00519); settings: Compound concentration 1000.0 nM
[34] = tested on: Tyrosine-protein kinase ABL1 (Homo sapiens), P00519 [Y253F]; settings: Compound concentration 1000.0 nM
[35] = molecular target: Cyclin-dependent kinase 16 (Homo sapiens) (UniProt Q00536); settings: Compound concentration 1000.0 nM
[36] = molecular target: Receptor tyrosine-protein kinase erbB-4 (Homo sapiens) (UniProt Q15303); settings: Compound concentration 1000.0 nM
[37] = molecular target: Calcium/calmodulin-dependent protein kinase type 1D (Homo sapiens) (UniProt Q8IU85); settings: Compound concentration 1000.0 nM
[38] = tested on: Tyrosine-protein kinase ABL1 (Homo sapiens), P00519 [Q252H]; settings: Compound concentration 1000.0 nM
[39] = molecular target: Mitogen-activated protein kinase kinase kinase 13 (Homo sapiens) (UniProt O43283); settings: Compound concentration 1000.0 nM
[40] = molecular target: Serine/threonine-protein kinase Chk1 (Homo sapiens) (UniProt O14757); settings: Compound concentration 1000.0 nM
[41] = molecular target: Serine/threonine-protein kinase PAK 3 (Homo sapiens) (UniProt O75914); settings: Compound concentration 1000.0 nM
[42] = tested on: ALK tyrosine kinase receptor (Homo sapiens), Q9UM73 [C1156Y]; settings: Compound concentration 1000.0 nM
[43] = tested on: Proto-oncogene tyrosine-protein kinase receptor Ret (Homo sapiens), P07949 [M918T]; settings: Compound concentration 1000.0 nM
Chain of Proto-oncogene tyrosine-protein kinase receptor Ret (Homo sapiens), P07949 [M918T] (P07949 whole entry M918T): as the sequence (P07949 whole entry) above, with M918T counted along it

[44] = molecular target: Proto-oncogene tyrosine-protein kinase ROS (Homo sapiens) (UniProt P08922); settings: Compound concentration 1000.0 nM
[45] = molecular target: Myosin light chain kinase, smooth muscle (Homo sapiens) (UniProt Q15746); settings: Compound concentration 1000.0 nM
Chain of Myosin light chain kinase, smooth muscle (Homo sapiens) (Q15746 whole entry): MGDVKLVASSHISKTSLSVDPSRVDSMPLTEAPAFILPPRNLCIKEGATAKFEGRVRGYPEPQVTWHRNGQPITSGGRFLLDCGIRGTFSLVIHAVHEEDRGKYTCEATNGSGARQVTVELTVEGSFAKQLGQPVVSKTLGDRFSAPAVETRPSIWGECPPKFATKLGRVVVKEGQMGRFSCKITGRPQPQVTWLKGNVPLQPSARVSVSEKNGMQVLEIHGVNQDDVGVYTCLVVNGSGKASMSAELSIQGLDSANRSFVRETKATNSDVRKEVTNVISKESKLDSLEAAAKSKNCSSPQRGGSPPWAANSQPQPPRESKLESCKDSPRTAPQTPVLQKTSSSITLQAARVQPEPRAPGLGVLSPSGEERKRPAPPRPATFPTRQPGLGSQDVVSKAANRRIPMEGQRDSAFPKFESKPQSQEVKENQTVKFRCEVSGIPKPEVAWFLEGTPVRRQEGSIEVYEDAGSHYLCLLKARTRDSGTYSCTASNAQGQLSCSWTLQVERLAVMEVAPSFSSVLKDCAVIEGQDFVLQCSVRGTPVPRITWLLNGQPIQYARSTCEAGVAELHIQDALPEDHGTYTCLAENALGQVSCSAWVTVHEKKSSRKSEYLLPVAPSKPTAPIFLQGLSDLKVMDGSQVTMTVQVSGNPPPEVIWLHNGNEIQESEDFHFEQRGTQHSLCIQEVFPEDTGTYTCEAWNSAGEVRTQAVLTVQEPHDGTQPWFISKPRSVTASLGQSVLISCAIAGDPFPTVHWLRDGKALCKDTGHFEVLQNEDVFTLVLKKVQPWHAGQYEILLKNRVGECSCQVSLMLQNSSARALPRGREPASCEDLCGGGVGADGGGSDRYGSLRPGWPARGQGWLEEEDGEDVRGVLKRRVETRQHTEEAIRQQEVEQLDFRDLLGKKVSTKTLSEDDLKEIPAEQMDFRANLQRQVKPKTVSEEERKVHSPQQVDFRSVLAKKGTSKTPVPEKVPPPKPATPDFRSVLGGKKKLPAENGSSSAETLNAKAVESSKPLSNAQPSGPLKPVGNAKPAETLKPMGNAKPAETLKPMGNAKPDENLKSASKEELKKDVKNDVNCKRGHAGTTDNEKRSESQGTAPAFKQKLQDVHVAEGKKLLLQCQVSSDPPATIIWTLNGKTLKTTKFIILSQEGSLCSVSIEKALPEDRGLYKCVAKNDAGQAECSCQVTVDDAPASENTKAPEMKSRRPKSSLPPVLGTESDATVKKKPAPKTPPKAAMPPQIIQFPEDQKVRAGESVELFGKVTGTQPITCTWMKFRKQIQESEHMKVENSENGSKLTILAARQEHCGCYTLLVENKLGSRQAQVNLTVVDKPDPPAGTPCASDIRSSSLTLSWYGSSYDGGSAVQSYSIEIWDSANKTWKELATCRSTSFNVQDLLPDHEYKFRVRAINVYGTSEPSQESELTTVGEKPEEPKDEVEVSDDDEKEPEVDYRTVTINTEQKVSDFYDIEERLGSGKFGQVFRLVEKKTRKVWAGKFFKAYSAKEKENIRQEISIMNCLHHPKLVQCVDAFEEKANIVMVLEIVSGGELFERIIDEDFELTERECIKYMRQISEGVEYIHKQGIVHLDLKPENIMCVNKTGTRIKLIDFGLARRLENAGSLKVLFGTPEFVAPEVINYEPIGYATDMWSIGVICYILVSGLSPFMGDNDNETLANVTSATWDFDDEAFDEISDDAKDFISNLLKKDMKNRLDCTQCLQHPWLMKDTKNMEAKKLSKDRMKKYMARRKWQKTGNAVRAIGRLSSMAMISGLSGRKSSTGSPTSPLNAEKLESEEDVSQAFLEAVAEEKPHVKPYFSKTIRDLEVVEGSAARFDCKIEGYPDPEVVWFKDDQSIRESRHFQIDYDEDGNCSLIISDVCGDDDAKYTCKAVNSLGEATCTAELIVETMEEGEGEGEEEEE

Chain of Histamine H4 receptor (Homo sapiens) (Q9H3N8 whole entry): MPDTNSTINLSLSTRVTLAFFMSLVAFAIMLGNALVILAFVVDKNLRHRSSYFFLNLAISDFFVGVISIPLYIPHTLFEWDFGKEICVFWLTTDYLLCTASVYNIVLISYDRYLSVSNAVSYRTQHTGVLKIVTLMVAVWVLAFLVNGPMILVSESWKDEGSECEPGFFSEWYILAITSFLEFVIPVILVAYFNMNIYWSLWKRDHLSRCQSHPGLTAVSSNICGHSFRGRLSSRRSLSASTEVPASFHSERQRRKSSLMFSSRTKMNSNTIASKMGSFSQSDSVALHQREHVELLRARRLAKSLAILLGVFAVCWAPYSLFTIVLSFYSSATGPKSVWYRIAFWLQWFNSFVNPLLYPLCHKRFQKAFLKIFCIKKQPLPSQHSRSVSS

Cc1c(NC(=O)c2cc(C(N)=O)nc3cc(F)ccc23)c(C(F)(F)F)nn1Cc1ccc(C#N)cc1 [BAY-876]
inactive: inhibition [1] 29% | residual activity [2] 97% | residual activity [3] 71% | inhibition [4] 11.1% | residual activity [5] 91% | residual activity [6] 82% | residual activity [7] 100% | residual activity [8] 64% | residual activity [9] 65% | residual activity [10] 75% | residual activity [11] 87% | residual activity [12] 81% | residual activity [13] 100% | residual activity [14] 100% | residual activity [15] 82% | residual activity [16] 100% | residual activity [17] 95% | residual activity [18] 100% | residual activity [19] 69% | residual activity [20] 79% | residual activity [21] 100% | residual activity [22] 83% | residual activity [23] 85% | inhibition [24] 0.0425% | residual activity [25] 94% | residual activity [26] 100% | residual activity [27] 73% | residual activity [28] 98% | residual activity [29] 80% | residual activity [30] 96% | residual activity [31] 84% | residual activity [32] 74% | residual activity [33] 78% | residual activity [34] 80% | residual activity [35] 100% | residual activity [36] 95% | residual activity [37] 100% | residual activity [38] 100% | residual activity [39] 84% | residual activity [40] 75% | residual activity [41] 76% | residual activity [42] 98% | residual activity [43] 96% | residual activity [44] 99% | residual activity [45] 65%

Cc1c(NC(=O)c2cc(C(N)=O)nc3cc(F)ccc23)c(C(F)(F)F)nn1Cc1ccc(C(C)(C)C)cc1 [BAY-588]
inactive: inhibition [1] 13% | residual activity [2] 100% | residual activity [3] 100% | inhibition [4] -8.78% | residual activity [5] 81% | residual activity [6] 83% | residual activity [7] 94% | residual activity [8] 98% | residual activity [9] 100% | residual activity [10] 100% | residual activity [11] 100% | residual activity [12] 100% | residual activity [13] 93% | residual activity [14] 86% | residual activity [15] 100% | residual activity [16] 100% | residual activity [17] 84% | residual activity [18] 100% | residual activity [19] 92% | residual activity [20] 88% | residual activity [21] 97% | residual activity [22] 100% | residual activity [23] 100% | inhibition [24] 23.1% | residual activity [25] 100% | residual activity [26] 76% | residual activity [27] 92% | residual activity [28] 100% | residual activity [29] 100% | residual activity [30] 100% | residual activity [31] 100% | residual activity [32] 100% | residual activity [33] 100% | residual activity [34] 100% | residual activity [35] 100% | residual activity [36] 98% | residual activity [37] 84% | residual activity [38] 84% | residual activity [39] 100% | residual activity [40] 100% | residual activity [41] 100% | residual activity [42] 100% | residual activity [43] 96% | residual activity [44] 100% | residual activity [45] 97%
